In publication PMC10066365, “Nemacol is a small molecule inhibitor of C. elegans vesicular acetylcholine transporter with anthelmintic potential” (Nature Communications, 2023):
Several values for one entry are separate records, joined by “and”; a condition that tells them apart may be missing. Identical values can stand only once.

Assays:
C. elegans = C. elegans motor phenotype scoring on solid media (Punc/jerky-unc, coiled, paralyzed), wild-type young adults; type: in vivo, Caenorhabditis elegans; conditions: for atypical locomotion (number of animals) / coiled (number of animals) / no phene (number of animals) / paralyzed (number of animals) / any phene: mean % fraction of young adults exhibiting any phenotype (coiled, jerky-Unc or paralyzed) / any phene (mean % fraction of young adults exhibiting any phenotype: coiled, jerky-Unc or paralyzed): one hour; for atypical locomotion (number of animals) / coiled (number of animals) / no phene (number of animals) / paralyzed (number of animals): young adults, 20 animals per trial, single technical replicate; for any phene: mean % fraction of young adults exhibiting any phenotype (coiled, jerky-Unc or paralyzed) / any phene (mean % fraction of young adults exhibiting any phenotype: coiled, jerky-Unc or paralyzed): mean of three biological replicates; for EC50: Caenorhabditis elegans, any motor phenotype after 1 h on solid media, ± 95% CI, read-out: C. elegans - motor disruption EC50
[1] = test system: Dirofilaria immitis L3/L4; experiment: Dirofilaria immitis L3/L4 motility assay (DiroImager, 72 h); conditions: Dirofilaria immitis L4
Pristionchus pacificus = Pristionchus pacificus motor disruption dose-response on solid media, 1 h; conditions: for mean % any phene (coiled, jerky-Unc or paralyzed): Pristionchus pacificus young adults; for mean % any phene (coiled, jerky-Unc or paralyzed) / mean % any phene: mean of three biological replicates; for EC50: Pristionchus pacificus, 1 h, read-out: P. pacificus motor disruption EC50; for mean % any phene: any phenotype (coiled, jerky-Unc or paralyzed) at one hour; for rep 1 atypical locomotion / rep 1 coiled / rep 1 no phene / rep 1 paralyzed / rep 2 atypical locomotion / rep 2 coiled / rep 2 no phene / rep 2 paralyzed / rep 3 atypical locomotion / rep 3 coiled / rep 3 no phene / rep 3 paralyzed: count of 20 animals per trial, one hour
[2] = test system: Dirofilaria immitis microfilariae; experiment: Dirofilaria immitis microfilariae immobility assay (DiroImager, 72 h); conditions: Dirofilaria immitis microfilariae
In short: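 About 250 freshly purified microfilariae of the Missouri isolate per well in supplemented RPMI 1640, exposed to compound for 72 h. Motility scored by automated whole-plate optical imaging; medium with 1% DMSO as negative control.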

[3] = conc 3.75, observed at one hour

FC(F)(F)c1cccc(N2CCN(C3CCCCCC3)CC2)c1 [Nemacol-52]
atypical locomotion (number of animals) (C. elegans; 3.75uM): 14 and 12 and 10 and 8 and 15
coiled (number of animals) (C. elegans; 3.75uM): 0
no phene (number of animals) (C. elegans; 3.75uM): 4 and 6 and 10 and 12 and 5
paralyzed (number of animals) (C. elegans; 3.75uM): 2 and 0
any phene: mean % fraction of young adults exhibiting any phenotype (coiled, jerky-Unc or paralyzed) (C. elegans; 3.75uM): 64.1667%
atypical locomotion (number of animals) (C. elegans; 15uM): 12 and 7 and 8 and 10 and 13 and 9
coiled (number of animals) (C. elegans; 15uM): 0 and 7 and 4 and 5
no phene (number of animals) (C. elegans; 15uM): 0
paralyzed (number of animals) (C. elegans; 15uM): 8 and 13 and 5 and 6 and 2 and 7
any phene: mean % fraction of young adults exhibiting any phenotype (coiled, jerky-Unc or paralyzed) (C. elegans; 15uM): 100%
atypical locomotion (number of animals) (C. elegans; 60uM): 12 and 8 and 7 and 6 and 13
coiled (number of animals) (C. elegans; 60uM): 0 and 1
no phene (number of animals) (C. elegans; 60uM): 0
paralyzed (number of animals) (C. elegans; 60uM): 8 and 12 and 13 and 7
any phene: mean % fraction of young adults exhibiting any phenotype (coiled, jerky-Unc or paralyzed) (C. elegans; 60uM): 100%
EC50 (C. elegans): 3.6 µM
% effect (motility), DIROIM L4 ([1]; 2 µM): 0%
% effect (motility), DIROIM L4 ([1]; 10 µM): 0%
% effect (motility), DIROIM L4 ([1]; 50 µM): 15%
mean % any phene (coiled, jerky-Unc or paralyzed) (Pristionchus pacificus; [3]): 5%
mean % any phene (coiled, jerky-Unc or paralyzed) (Pristionchus pacificus; conc 15, observed at one hour): 21.6667%
mean % any phene (coiled, jerky-Unc or paralyzed) (Pristionchus pacificus; conc 60, observed at one hour): 97.5%
EC50 (Pristionchus pacificus): 21.7 ± 3.7 µM
% effect (motility), DIROIM MF ([2]; 0.016 µM): 0%
% effect (motility), DIROIM MF ([2]; 0.08 µM): 0%
% effect (motility), DIROIM MF ([2]; 0.4 µM): 0%
% effect (motility), DIROIM MF ([2]; 2 µM): 0%
% effect (motility), DIROIM MF ([2]; 10 µM): 0%

FC(F)(F)c1cccc(N2CCN(CC3CCCCC3)CC2)c1 [Nemacol-49]
atypical locomotion (number of animals) (C. elegans; 3.75uM): 3 and 2 and 1
coiled (number of animals) (C. elegans; 3.75uM): 0
no phene (number of animals) (C. elegans; 3.75uM): 17 and 18 and 19
paralyzed (number of animals) (C. elegans; 3.75uM): 0
any phene: mean % fraction of young adults exhibiting any phenotype (coiled, jerky-Unc or paralyzed) (C. elegans; 3.75uM): 9.167%
atypical locomotion (number of animals) (C. elegans; 15uM): 12 and 13 and 9
coiled (number of animals) (C. elegans; 15uM): 3 and 1 and 2 and 0
no phene (number of animals) (C. elegans; 15uM): 5 and 7 and 10 and 8
paralyzed (number of animals) (C. elegans; 15uM): 0
any phene: mean % fraction of young adults exhibiting any phenotype (coiled, jerky-Unc or paralyzed) (C. elegans; 15uM): 65%
atypical locomotion (number of animals) (C. elegans; 60uM): 13 and 16 and 10 and 14 and 15
coiled (number of animals) (C. elegans; 60uM): 7 and 4 and 10 and 6 and 1 and 3
no phene (number of animals) (C. elegans; 60uM): 0 and 5 and 2
paralyzed (number of animals) (C. elegans; 60uM): 0
any phene: mean % fraction of young adults exhibiting any phenotype (coiled, jerky-Unc or paralyzed) (C. elegans; 60uM): 94.1667%
EC50 (C. elegans): 11.2 ± 1.6 µM
% effect (motility), DIROIM L4 ([1]; 10 µM): 0%
% effect (motility), DIROIM L4 ([1]; 50 µM): 10%
EC50 (Pristionchus pacificus): > 60 µM
mean % any phene (Pristionchus pacificus; conc 3.75): 0%
rep 1 atypical locomotion (Pristionchus pacificus; conc 3.75): 0
rep 1 coiled (Pristionchus pacificus; conc 3.75): 0
rep 1 no phene (Pristionchus pacificus; conc 3.75): 20
rep 1 paralyzed (Pristionchus pacificus; conc 3.75): 0
rep 2 atypical locomotion (Pristionchus pacificus; conc 3.75): 0
rep 2 coiled (Pristionchus pacificus; conc 3.75): 0
rep 2 no phene (Pristionchus pacificus; conc 3.75): 20
rep 2 paralyzed (Pristionchus pacificus; conc 3.75): 0
rep 3 atypical locomotion (Pristionchus pacificus; conc 3.75): 0
rep 3 coiled (Pristionchus pacificus; conc 3.75): 0
rep 3 no phene (Pristionchus pacificus; conc 3.75): 20
rep 3 paralyzed (Pristionchus pacificus; conc 3.75): 0
mean % any phene (Pristionchus pacificus; conc 15): 0%
rep 1 atypical locomotion (Pristionchus pacificus; conc 15): 0
rep 1 coiled (Pristionchus pacificus; conc 15): 0
rep 1 no phene (Pristionchus pacificus; conc 15): 20
rep 1 paralyzed (Pristionchus pacificus; conc 15): 0
rep 2 atypical locomotion (Pristionchus pacificus; conc 15): 0
rep 2 coiled (Pristionchus pacificus; conc 15): 0
rep 2 no phene (Pristionchus pacificus; conc 15): 20
rep 2 paralyzed (Pristionchus pacificus; conc 15): 0
rep 3 atypical locomotion (Pristionchus pacificus; conc 15): 0
rep 3 coiled (Pristionchus pacificus; conc 15): 0
rep 3 no phene (Pristionchus pacificus; conc 15): 20
rep 3 paralyzed (Pristionchus pacificus; conc 15): 0
mean % any phene (Pristionchus pacificus; conc 60): 12.5%
rep 1 atypical locomotion (Pristionchus pacificus; conc 60): 2
rep 1 coiled (Pristionchus pacificus; conc 60): 0
rep 1 no phene (Pristionchus pacificus; conc 60): 18
rep 1 paralyzed (Pristionchus pacificus; conc 60): 0
rep 2 coiled (Pristionchus pacificus; conc 60): 0
rep 2 no phene (Pristionchus pacificus; conc 60): 17 and 19
rep 2 paralyzed (Pristionchus pacificus; conc 60): 0
rep 3 atypical locomotion (Pristionchus pacificus; conc 60): 4 and 3
rep 3 coiled (Pristionchus pacificus; conc 60): 0
rep 3 no phene (Pristionchus pacificus; conc 60): 16 and 17
rep 3 paralyzed (Pristionchus pacificus; conc 60): 0
% effect (motility), DIROIM MF ([2]; 0.016 µM): 0%
% effect (motility), DIROIM MF ([2]; 0.08 µM): 0%
% effect (motility), DIROIM MF ([2]; 0.4 µM): 0%
% effect (motility), DIROIM MF ([2]; 2 µM): 0%
% effect (motility), DIROIM MF ([2]; 10 µM): 0%

CC1CCC(N2CCN(c3ccc(Cl)cc3)CC2)C1 (stereo not shown) [Nemacol-44]
any phene (mean % fraction of young adults exhibiting any phenotype: coiled, jerky-Unc or paralyzed) (C. elegans; 3.75uM, third c14 line of each analog): 80%
any phene (mean % fraction of young adults exhibiting any phenotype: coiled, jerky-Unc or paralyzed) (C. elegans; 15uM, second c14 line of each analog): 100%
any phene (mean % fraction of young adults exhibiting any phenotype: coiled, jerky-Unc or paralyzed) (C. elegans; 60uM, first c14 line of each analog): 100%
EC50 (C. elegans): 3.4 µM
% effect (motility), DIROIM L4 ([1]; 2 µM): 0%
% effect (motility), DIROIM L4 ([1]; 10 µM): 0%
% effect (motility), DIROIM L4 ([1]; 50 µM): 10%
mean % any phene (coiled, jerky-Unc or paralyzed) (Pristionchus pacificus; [3]): 63.3333%
mean % any phene (coiled, jerky-Unc or paralyzed) (Pristionchus pacificus; conc 15, observed at one hour): 90.7456%
mean % any phene (coiled, jerky-Unc or paralyzed) (Pristionchus pacificus; conc 60, observed at one hour): 100%
EC50 (Pristionchus pacificus): 2.5 ± 1 µM
rep 1 atypical locomotion (Pristionchus pacificus; conc 3.75): 3
rep 1 coiled (Pristionchus pacificus; conc 3.75): 0
rep 1 no phene (Pristionchus pacificus; conc 3.75): 17
rep 1 paralyzed (Pristionchus pacificus; conc 3.75): 0
rep 2 atypical locomotion (Pristionchus pacificus; conc 3.75): 10
rep 2 coiled (Pristionchus pacificus; conc 3.75): 8
rep 2 no phene (Pristionchus pacificus; conc 3.75): 2
rep 2 paralyzed (Pristionchus pacificus; conc 3.75): 0
rep 1 atypical locomotion (Pristionchus pacificus; conc 15): 13
rep 1 coiled (Pristionchus pacificus; conc 15): 7
rep 1 no phene (Pristionchus pacificus; conc 15): 0
rep 1 paralyzed (Pristionchus pacificus; conc 15): 0
rep 2 atypical locomotion (Pristionchus pacificus; conc 15): 0
rep 2 coiled (Pristionchus pacificus; conc 15): 14
rep 2 no phene (Pristionchus pacificus; conc 15): 0
rep 2 paralyzed (Pristionchus pacificus; conc 15): 6
rep 1 atypical locomotion (Pristionchus pacificus; conc 60): 2
rep 1 coiled (Pristionchus pacificus; conc 60): 5
rep 1 no phene (Pristionchus pacificus; conc 60): 0
rep 1 paralyzed (Pristionchus pacificus; conc 60): 13
rep 2 atypical locomotion (Pristionchus pacificus; conc 60): 1
rep 2 coiled (Pristionchus pacificus; conc 60): 7
rep 2 no phene (Pristionchus pacificus; conc 60): 0
rep 2 paralyzed (Pristionchus pacificus; conc 60): 12
% effect (motility), DIROIM MF ([2]; 0.016 µM): 0%
% effect (motility), DIROIM MF ([2]; 0.08 µM): 0%
% effect (motility), DIROIM MF ([2]; 0.4 µM): 0%
% effect (motility), DIROIM MF ([2]; 2 µM): 0%
% effect (motility), DIROIM MF ([2]; 10 µM): 0%
